Values after ≈ are worked out from the molar mass of the structure shown. Values joined by “and” are separate entries in the source; they are usually repeats but may differ in a detail not shown here. Equal values may be shown once. “Also recorded” adds a separate entry of the source.
Assays:
[1] = Solid stability test of amorphous form (HPLC content and total impurity); assay type: physicochemical
Experimental: 1.5 High Performance Liquid Chromatograph (HPLC) • Instrument model: Agilent 1200 high performance liquid chromatograph • The analysis method is as follows:
Stability of amorphous form sample under conditions of high temperature, high humidity (40° C./RH 75.0%, closed) and acceleration.
About 1.4 g of sample was put into a double-layer LDPE bag, each layer of LDPE bag was fastened and sealed respectively, then the LDPE bag and a medicinal desiccant were put into an aluminum-foil bag and sealed by heating, under conditions of high temperature and high humidity, a sample was taken on the 30th day for detection, and a detection result was compared with an initial detection result on the 0th day.

[2] = Equilibrium solubility of amorphous form sample in different pH media; assay type: physicochemical; settings: for solubility at 24 h: thermodynamic from solid
Experimental: An equilibrium solubility of an amorphous form sample in pH 1.0/2.0 (hydrochloric acid solution), pH 3.8/4.5/5.5 (acetate buffer solution), pH 6.0/6.8/7.4 (phosphate buffer solution) and water was detected (prepared according to the Technical Guiding Principles for Dissolution Rate Test of Ordinary Oral Solid Preparations of Chinese Pharmacopoeia).
5 mL of different media (pH 1.0, pH 2.0, pH 3.8, pH 4.5, pH 5.5, pH 6.0, pH 6.8 and pH 7.4 buffer solutions and pure water) were respectively added into nine 8 mL glass bottles, and an appropriate amount of amorphous form sample was added respectively to make the mixture a suspension. Magnetic stirring bars were added into the sample above, which are placed on a magnetic stirrer to stir (at a temperature of 37° C.).
The sample was centrifuged after 24 h, and a supernatant was taken from an upper sample to determine a concentration thereof by HPLC and a pH value thereof (results shown in Table 4).

[3] = Hygroscopicity test of amorphous form sample; assay type: physicochemical; settings: 25° C., 24 h
Experimental: A hygroscopicity of an amorphous form sample was detected. (The hygroscopicity of the compound was determined according to the method in the General Rules of the Chinese Pharmacopoeia (2015 Version) Volume IV).
Three dry glass weighing bottles with stoppers were weighed, the results of which were recorded as m1 1, m1 2 and m1 3. An appropriate amount of crude drug sample was spread in the weighed weighing bottles (the sample has a thickness of about 1 mm), then accurately weighed and recorded as m2 1, m2 2 and m2 3. The weighing bottles were open and placed together with bottle caps in a dryer with saturated ammonium chloride solution at a lower part, the dryer was covered, then the dryer was placed in a thermostat at 25° C. for 24 h. After being placed for 24 h, the weighing bottles were covered, then taken out for accurate weighing, the results of which were recorded as m3 1, m3 2 and m3 3. Weight increase by hygroscopicity was calculated, and the calculation formula was as follows: weight increase percentage=100%×(m3−m2)/(m2−m1).

[4] = Solid stability test of crystal form (XRPD); assay type: physicochemical
Experimental: According to the Guiding Principles for Stability Experiment of Crude Drugs and Preparations (General Rules 9001 of Chinese Pharmacopoeia (2015 Version) Volume IV), a stability of a compound placed under conditions of high temperature (60° C., open), high humidity (RT/92.5% RH, open) and illumination (50001×, closed) for 5 days and 10 days were investigated.
An appropriate amount of a crystal form sample of a compound represented by formula (I) was placed at a bottom of a glass sample bottle and spread into a thin layer. The sample placed under the conditions of high temperature and high humidity was sealed with aluminum-foil paper, and small holes were punched in the aluminum-foil paper to ensure that the sample could be fully contacted with ambient air. The sample placed under the condition of illumination (50001×) was sealed with a bottle cap and further sealed with a sealing film, the sample was sealed and placed at a room temperature, and XRPD detection was performed on the 5th day and the 10th day.

[5] = Pharmacokinetic study, intramuscular injection in mouse; assay type: in vivo, SD mouse; settings: sesame oil suspension
Experimental: Through the experiment of drug metabolism in a mouse, the metabolism of the compound in the mouse is evaluated by taking Cmax, t1/2, AUC, MRT and B/P ratio in vivo as indexes.
A test compound was mixed with an appropriate amount of sesame oil, and the mixture was vortexed and ultrasonically processed to obtain an even suspension of 25 μmol/mL. A SD mouse aged 6 weeks to 9 weeks (Shanghai SLAC Laboratory Animal Co., Ltd) was selected and intramuscularly injected with a suspension of the test compound at a dose of 20 μmol/kg or 40 μmol/kg. Whole blood of a certain period of time was collected, and a precipitant (acetonitrile, methanol and internal standard for analysis) was added and centrifuged. A supernatant solution was analyzed for a drug concentration by a LC-MS/MS method (if the test drug was the prodrug, concentrations of the prodrug and the hydrolyzed parent drug were analyzed simultaneously), and pharmacokinetic parameters were calculated by Phoenix WinNonlin software (Pharsight Company of the United States).

[6] = High temperature and high humidity (40° C./RH 75.0%, close), 30 days

SMILES: C[C@@]12CCCCC[C@@H](Cc3c(F)cc(OC(=O)CCCCCCCCC(=O)Oc4cc(F)c5c(c4)[C@@]4(C)CCCCC[C@@H](C5)[C@@H]4N)cc31)[C@@H]2N [listing 1 of 2 here]
- Content ([1]; 0 day): 99.3%
- Total impurity ([1]; 0 day): 1.56%
- Content [1, 6]: 97.8%
- Total impurity [1, 6]: 1.96%
- Solid stability of amorphous form (conclusion in words) ([1]; high temperature, high humidity and sealing, 30 days): relatively stable
- solubility at 24 h ([2]; 0.01 N HCl, simulated gastric fluid, 0.01 NHCl, final pH 2.01, 37° C., 24 h): 1630 µg/mL (≈ 2.35 mM)
- solubility at 24 h ([2]; 0.1 N HCl, simulated gastric fluid, 0.1 NHCl, final pH 1.02, 37° C., 24 h): 398 µg/mL (≈ 0.574 mM)
- solubility at 24 h ([2]; aqueous buffer, pH 3.8 buffer solution (acetate), final pH 3.68, 37° C., 24 h): 15100 µg/mL (≈ 21.8 mM)
- solubility at 24 h ([2]; aqueous buffer, pH 4.5 buffer solution (acetate), final pH 4.48, 37° C., 24 h): 19600 µg/mL (≈ 28.3 mM)
- solubility at 24 h ([2]; aqueous buffer, pH 5.5 buffer solution (acetate), final pH 5.25, 37° C., 24 h): 18700 µg/mL (≈ 27 mM)
- solubility at 24 h ([2]; aqueous buffer, pH 6.0 buffer solution (phosphate), final pH 5.89, 37° C., 24 h): 13 µg/mL (≈ 0.0188 mM)
- solubility at 24 h ([2]; aqueous buffer, pH 6.8 buffer solution (phosphate), final pH 6.75, 37° C., 24 h): 3 µg/mL (≈ 0.00433 mM)
- Solubility (in words) ([2]; hydrochloric acid solution, acetate buffer solution and water): easily soluble
- Solubility ([2]; pH 7.4 buffer solution (phosphate), final pH 7.20, 37° C., 24 h, LOQ = 0.0003 mg/mL): <LOQ
- Solubility (in words) ([2]; phosphate buffer solution): slightly soluble or insoluble
- solubility at 24 h ([2]; pure water, Water, final pH 4.28, 37° C., 24 h): 13500 µg/mL (≈ 19.5 mM)
- Hygroscopicity (in words) [3]: had hygroscopicity
- Weight increase percentage, average value ([3]; average of three samples, over saturated ammonium chloride solution): 5.24%
- Weight increase percentage ([3]; single samples 1-3, over saturated ammonium chloride solution): 5.790% and 5.215% and 4.714%

SMILES: C[C@@]12CCCCC[C@@H](Cc3c(F)cc(OC(=O)CCCCCCCCC(=O)Oc4cc(F)c5c(c4)[C@@]4(C)CCCCC[C@@H](C5)[C@@H]4N)cc31)[C@@H]2N [listing 2 of 2 here]
- Crystal form (MOD) ([4]; 0 day, initial): Crystal form of compound represented
- Crystal form (MOD) ([4]; High humidity (RT/RH 92.5%, open), 5 days): Crystal form of compound represented
- Crystal form (MOD) ([4]; High humidity (RT/RH 92.5%, open), 10 days): Crystal form of compound represented
- Crystal form (MOD) ([4]; High temperature (60° C., open), 5 days): Crystal form of compound represented
- Crystal form (MOD) ([4]; High temperature (60° C., open), 10 days): Crystal form of compound represented
- Crystal form (MOD) ([4]; Illumination (5000lx, closed), 5 days): Crystal form of compound represented
- Crystal form (MOD) ([4]; Illumination (5000lx, closed), 10 days): Crystal form of compound represented
- Solid stability of crystal form (conclusion in words) ([4]; high temperature, high humidity and illumination, 5 and 10 days vs 0 day): did not change; also recorded: stable under the conditions of high temperature, high humidity and illumination without any change

SMILES: C[C@@]12CCCCC[C@@H](Cc3c(F)cc(OC(=O)CCCCCCCCC(=O)Oc4cc(F)c5c(c4)[C@@]4(C)CCCCC[C@@H](C5)[C@@H]4N)cc31)[C@@H]2N [Compound B]
- Release and hydrolysis in vivo (in words) [5]: slowly released in vivo after intramuscular injection and quickly hydrolyzed into the parent drug compound A

Reference: patent publication US11339119B2, “Crystal form and amorphous form of dezocine analogue hydrochloride” (Shandong Danhong Pharmaceutical Co., Ltd., priority 2017, dated 2022)
